Assay results taken from patent US12241058B2, “Recombinant microbial system for directed evolution of glycocins and method of preparation thereof” (COUNCIL OF SCIENTIFIC & INDUSTRIAL RESEARCH, priority 2018, dated 2025).
No end group written: not given here. *: point of attachment. X1 = OC[C@H]1O[C@@H](O[C@H]2[C@H](O)[C@@H](O)[C@H](*)O[C@@H]2CO)[C@H](O)[C@@H](O)[C@@H]1O

What was measured:
[1] = tested on: L. monocytogenes MTCC 839; experiment: Agar diffusion test (ADT) of cleaved neo-glycocins; type: cell-based, Listeria monocytogenes; details: L. monocytogenes MTCC 839, FIG. 5Bd-e
[2] = Cytotoxicity MTT reduction assay; type: cell-based; details: human; 50% cell death, THP-1 cells, MTT, 18-24 hours
Procedure: (§1) Cytotoxicity of Enterocin 96 and its variants (neo-glycocins) against THP-1 cells and anti-cancer potential against HepG2 cells was measured by the conventional MTT reduction assay. HepG2 and THP-1 cells (1×10^4 cells/well) were seeded into the 96-well plate and cultured at 37° C. in an atmosphere of 5% CO2 to allow them to adhere overnight. After 24 hours, the cells were exposed to Enterocin 96 and its variants (neo-glycocins) at various concentrations (75-1000 μM) for 18-24 hours. After the incubation period, 150 μl media and the suspended cells were discarded and washed with 200 μl PBS. After that, 200 μl of fresh media was added followed by 20 μl of MTT (5 mg/mL) into each well in the 96-well plate and incubated for 4 h in CO2 incubator. One hundred and fifty microlitres of medium with MTT was removed from every well and 100 μl DMSO was added to each well to solubilize the formazan crystal by incubating for 20 min in CO2 incubator. Finally, the plates were read at 570 nm by using Multiskan Go plate-reader (Thermo Scientific) and then percentage of cell viability was determined.

L. monocytogenes EGD-e = experiment: Agar diffusion test (ADT) of cell lysates, zone of growth inhibition, with PAS staining for glycosylation; type: cell-based, Listeria monocytogenes; details: for Zone of inhibition as well as glycosylation positive: ADT against L. monocytogenes, cleavage buffer treated cell lysate, glycosylation by PAS staining
E. coli MTCC 1610 = experiment: Agar diffusion test (ADT) of cleaved neo-glycocins; type: cell-based
Description: (§2) FIG. 5B (d-i): Confirmation of antimicrobial activity of cleaved neo glycocins against bacterial strains namely L. monocytogenes EGDe (FIG. 5Bd-e): Vibrio cholera MTCC 3904 (FIG. 5Bf), E. coli 1610 (FIG. 5Bg), Bacillus lichenmformis MTCC 9857 (FIG. 5Bh) and Bacillus halodurans MTCC 7181 (FIG. 5Bi) using ADT;
Where in #1, f and g: cell lysate of cleavage buffer treated C13T, a variant of Enterocin 96 having SEQ ID NO: 10; #2, f and g: positive control parent peptide Enterocin 96 diglycosylated having SEQ ID NO: 9; #3, f and g: negative control/lysis buffer; #4.f and g: is negative control/cleavage buffer;
(§3) The cell lysate containing glycocins were directly subjected to agar diffusion test (ADT) using L. monocytogenes EGD-e. In ADT, the agar plates seeded with L. monocytogenes EGD-e (approximately 10^7 cells) were prepared. Approximately 100 μL lysate containing glycocin or its variants (neo-glycocin) (SEQ ID NO: 9, SEQ ID NO: 10 and SEQ ID NO: 11) were applied into the wells in the seeded plate followed by incubation of the plate at 4° C. for 1 h. Presence of inhibition zones around the wells was checked post overnight incubation of the plates at 37° C. The antimicrobial activities of the glycocin and neo-glycocin were determined by monitoring the zone of growth inhibition on the plates.

[3] = tested on: Bacillus licheniformis MTCC 9857; experiment: Agar diffusion test (ADT) of cleaved neo-glycocins; type: cell-based
Description: as §2
Wherein #1, h and i: cell lysate of cleavage buffer treated C13T, a variant of Enterocin 96 having SEQ ID NO: 10; #2, h and i: positive control parent peptide Enterocin 96 diglycosylated having SEQ ID NO: 9; #3, h and i: negative control/cleavage buffer; #4, h and i: is nisin (1 mg/ml).
as §3

bacterial strains = experiment: Antimicrobial spectrum by ADT against bacterial strains; type: cell-based; details: FIG. 5B a-i
Procedure: as §2
Simultaneously, to check the change in spectrum of bioactivity of neo-glycocins, the agar plates of L. monocytogenes EGD-e seeded with approximately 10^7 bacterial cells were prepared. A 100 μL of cell lysate of mutants were added into the each well and then the plate was incubated at 4° C. for 1 h followed by overnight incubation at 37° C. The presence of inhibition zones around the wells was checked. The antimicrobial activity was determined by monitoring the zone of growth inhibition. […] The glycosylation status of the neo-glycocin produced from the selected mutant were analyzed using PAS staining and MALDI-TOF and LC-ESI-MS analysis as discussed below.

L. monocytogenes [4] = experiment: pH and heat stability, bioactivity verified using ADT assay; details: 121° C. for 15 minutes
HepG2 cells = experiment: Anti-cancer MTT reduction assay; type: cell-based
Procedure: as §1

THP-1 cells = experiment: Cytotoxicity MTT reduction assay; type: cell-based
Procedure: as §1

human red blood cells = experiment: Hemolytic assay; type: cell-based
Procedure: Samples were prepared within 3 h of performing the assay. Neo-glycocins stock solutions of 1 mg/ml were prepared by dissolving the neo-glycocins in PBS (10 mM phosphate buffer, pH 7.4); the samples were mixed by inversion to ensure neo-glycocins were completely dissolved in PBS. To prepare the Human Red Blood Cell (hRBC) solution, blood was collected from healthy individual and RBCs were isolated following standard procedure. Informed consent was acquired from all donors and this work was carried out in compliance with the ethical committee guidelines of CSIR-IMTECH with IEC NO SUIEC/14/03.
2 ml whole blood from healthy individual was centrifuged for 30 mins at 1000 rpm(4° C.). Layer of RBCs was collected and diluted with equal volume of 1×PBS and mixture was centrifuged three times for 10 mins at 1000 rpm, 4° C. To prepare 4% RBC solution, 1 ml of RBC were mixed with 24 ml 1×PBS. To examine the hemolysis property of neo-glycocins (75-1000 μM), 20 μl of freshly prepared neo-glycocins solution was mixed with 180 μl of freshly prepared hRBC solution and was placed at 37° C. for 1 h. A total of 20 μl of PBS buffer only and 20 μl of Triton X-100 1% (w/v) were mixed with 180 μl of hRBC solution as negative and positive controls, respectively. After 1 h of incubation, all samples were centrifuged at 2500 rpm for 10 min. A total of 100 μl of supernatant was collected, and the release of hemoglobin was monitored by measuring the absorbance of the supernatant at 570 nm with a Multiskan Go plate-reader (Thermo Scientific). Hemolysis percentage for each sample was calculated by dividing sample's absorbance on positive control absorbance (complete hemolysis) multiplied by 100.

L. monocytogenes [5] = experiment: Determination of the MIC against L. monocytogenes (96-well broth dilution); type: cell-based, Listeria monocytogenes; details: Minimum Inhibitory Concentration against L. monocytogenes, 18 h at 37° C.
Procedure: One colony of an indicator strain (L. monocytogenes) was picked from an NB agar plate, inoculated to liquid NB medium and grown at 37° C., in a shaking incubator until OD^600 nm of 0.5 was reached. Then, the culture was diluted with NB medium and serial twofold dilutions with NB medium were made. Hundred microliters of Enterocin 96 solution (1 mg/ml in MQ) were transferred to a 96-well plate and mixed with 100 μl previously prepared cell suspension of sensitive strain. Similarly, positive control Nisin (1 mg/ml in MQ, Sigma Cat. # N5764), 100 μl mixture of NB medium with the Listeria, and negative controls (media alone, untreated indicator strain). 100 μL mixture of NB medium were prepared and dispersed in the same 96-well plates. The plate was incubated for 18 h at 37° C. in a shaking incubator. After incubation, the growth of bacteria was evaluated visually and by a plate reader. The analyses were performed in triplicate. Similarly, MIC of other variants of Enterocin 96 (neo-glycocins) was determined using above described method.

Substance: MASKRDCNLMKACCAGQAVTYAIHSLLNRLGGDC(X1)SDPAGCNDIVRKYCK (cysteines drawn unpaired) [SEQ ID NO: 40]
- Bioactivity compared with the parent peptide [1]: equally bioactive
- IC50 [2]: 314.7 ± 0.18 µM
- Zone of inhibition as well as glycosylation positive (L. monocytogenes EGD-e): positive
- Zone of inhibition as well as glycosylation positive (L. monocytogenes EGD-e; listed as S34C): Yes
- Bioactivity compared with the parent peptide (L. monocytogenes EGD-e; ADT, L. monocytogenes EGDe, FIG. 5Bd-e): equally bioactive

Substance: MASKRDCNLMKACCAGQAVTYAIHSLLNRLGGDS(X1)SDPAGCNDIVRKYCK (cysteines drawn unpaired) [SEQ ID NO: 9, Enterocin 96, reference compound]
- Bioactivity against Gram negative bacteria E. coli MTCC 1610 (E. coli MTCC 1610): not
- IC50 [2]: 194.1 ± 0.119 µM
- Bioactivity against Gram positive spore forming bacteria Bacillus licheniformis MTCC 9857 [3]: not

Substance: MASKRDCNLMKATCAGQAVTYAIHSLLNRLGGDS(X1)SDPAGCNDIVRKYCK (cysteines drawn unpaired) [SEQ ID NO: 10]
- Antimicrobial spectrum compared with native glycocin / Nisin and Enterocin 96 (bacterial strains): different antimicrobial spectrum
- Antimicrobial spectrum compared with native glycocin / Nisin and Enterocin 96 (bacterial strains; listed as C13T): improved antibacterial spectrum
- Bioactivity against Gram negative bacteria E. coli MTCC 1610 (E. coli MTCC 1610): observed
- Bioactivity against L. monocytogenes post autoclaving (L. monocytogenes [4]): retain bioactivity
- Cytotoxicity compared with Nisin and Enterocin 96 (HepG2 cells; HepG2, FIG. 6C): no significant change
- IC50 [2]: 248.6 ± 0.105 µM
- Cytotoxicity compared with Nisin and Enterocin 96 (THP-1 cells; THP-1, FIG. 6B): no significant change
- Bioactivity against Gram positive spore forming bacteria Bacillus licheniformis MTCC 9857 [3]: observed
- Zone of inhibition as well as glycosylation positive (L. monocytogenes EGD-e): positive
- Zone of inhibition as well as glycosylation positive (L. monocytogenes EGD-e; listed as C13T): Yes
- Hemolysis compared with Nisin and Enterocin 96 (human red blood cells; FIG. 6A): no significant change
- Water solubility (Water solubility): water soluble

Substance: neo-glycocin with pediocin box (YYGNGV): MASKYYGNGVKRDCNLMKACCAGQAVTYAIHSLLNRLGGDSSDPAGCNDIVRKYCK (not fully specified; cysteine pairing not given here) [SEQ ID NO: 11]
- Antimicrobial spectrum compared with native glycocin / Nisin and Enterocin 96 (bacterial strains): different antimicrobial spectrum
- Anti-bacterial activity (MIC in μM) (L. monocytogenes [5]): >0.54 µM
- IC50 (HepG2 cells; 50% cell (cancerous) death, HepG2 cells, MTT, 18-24 hours): 192.1 ± 0.135 µM
- IC50 (THP-1 cells; 50% cell death, THP-1 cells, MTT, 18-24 hours): 233.6 ± 0.132 µM
- Zone of inhibition as well as glycosylation positive (L. monocytogenes EGD-e): positive
- Zone of inhibition as well as glycosylation positive (L. monocytogenes EGD-e; listed as PedioEnt96): Yes
- Activity against L. monocytogenes compared with diglycosylated glycocin (L. monocytogenes EGD-e; monoglycosylated length and glycan variant, strain not specified): as active as diglycosylated glycocin
- Hemolysis (MHC in μM) (human red blood cells): 600 µM
